Laboratory results from patent US20070092474A1, “Carnitine salt, preliposome which contains it and dermocosmetic formula for topical use based upon said carnitine salt” (priority 2003, published 2007).
Where “and” joins values, the source holds several entries; their conditions need not be identical. Equal entries are not always repeated.

System: skin blemishes caused by cellulite and localised adiposity
Assay: Thigh circumference measured with a measuring tape, dermatological test of the cosmetic gel
Format: in vivo, female volunteers
Set-up: RIGHT THIGH CIRCUMFERENCE 1/3 T0 / RIGHT THIGH CIRCUMFERENCE 3/3 T15 / RIGHT THIGH CIRCUMFERENCE 3/3 T30 / RIGHT THIGH CIRCUMFERENCE 3/3 T60 / RIGHT THIGH CIRCUMFERENCE 1/3 T15 / RIGHT THIGH CIRCUMFERENCE 1/3 T60 / RIGHT THIGH CIRCUMFERENCE 2/3 T0 / RIGHT THIGH CIRCUMFERENCE 2/3 T15 / RIGHT THIGH CIRCUMFERENCE 2/3 T30 / RIGHT THIGH CIRCUMFERENCE 2/3 T60 / RIGHT THIGH CIRCUMFERENCE 3/3 T0 / LEFT THIGH CIRCUMFERENCE 3/3 T60 / LEFT THIGH CIRCUMFERENCE 1/3 T15 / LEFT THIGH CIRCUMFERENCE 1/3 T30 / LEFT THIGH CIRCUMFERENCE 1/3 T60 / LEFT THIGH CIRCUMFERENCE 2/3 T0 / LEFT THIGH CIRCUMFERENCE 2/3 T15 / LEFT THIGH CIRCUMFERENCE 3/3 T0: unit not given beside the values
Protocol: A dermatological test was carried out on 25 female volunteers between 18 and 65 years of age, with the backing of the Department of Physiological and Pharmacological Sciences of the university of Pavia. The investigation aimed to check the modification of three anatomical-physiological parameters, qualifying the unaesthetic-functional aspect connected to the manifestation of so-called cellulite and subcutaneous hypertriglyceridaemia: measurement of the skin folds, measurement of the circumference of the thighs, thermographic skin measurement.
The test stretched out over 60 days with the continual daily application of the aforementioned preparation of cosmetic gel. The measurements were carried out after 15, 30 and 60 days. The detail of the test protocol and of the results obtained is shown hereafter.
25 female volunteers aged between 18 and 65, with the presence of skin blemishes caused by cellulite and localised adiposity, were selected according to the following criteria: good general state of health, absence of skin pathologies, not being under medication, commitment not to vary the normal daily routine, no medical history of atopy.
The samples were tested by uniformly applying them on “Glute SX Glute DJ (Femoris Posto SX Femoris Posto DX Femoris Ant. SX Femoris Ant. DX” every day at least once per day for the entire duration of the test.
At the time of inclusion in the study and during the subsequent checks after 15 days (T15), after 30 days (T30) and after 60 days (T60) of treatment the following instrumental measurements were taken: • plicometry (through a plicometer) • thigh circumference (through a measuring tape broken into millimetres) • contact thermography (through liquid crystal thermographic plates).

[1] = MEDIA of 25 volunteers, T0 at inclusion, before treatment
[2] = MEDIA of 25 volunteers, after 15 days of daily gel application
[3] = MEDIA of 25 volunteers, after 30 days of daily gel application
[4] = MEDIA of 25 volunteers, after 60 days of daily gel application
[5] = individual volunteer, T0 at inclusion, before treatment
[6] = individual volunteer, after 15 days of daily gel application
[7] = individual volunteer, after 30 days of daily gel application
[8] = individual volunteer, after 60 days of daily gel application

carnitine hydroxycitrate [carnitine hydroxy citrate]
LEFT THIGH CIRCUMFERENCE 1/3 T0, MEDIA [1]: 53.1 | LEFT THIGH CIRCUMFERENCE 2/3 T0, MEDIA [1]: 50.2 | LEFT THIGH CIRCUMFERENCE 3/3 T0, MEDIA [1]: 40.3 | RIGHT THIGH CIRCUMFERENCE 1/3 T0, MEDIA [1]: 53.1 | RIGHT THIGH CIRCUMFERENCE 2/3 T0, MEDIA [1]: 50.3 | RIGHT THIGH CIRCUMFERENCE 3/3 T0, MEDIA [1]: 40.4 | LEFT THIGH CIRCUMFERENCE 1/3 T15, MEDIA [2]: 52.7 | LEFT THIGH CIRCUMFERENCE 2/3 T15, MEDIA [2]: 49.7 | LEFT THIGH CIRCUMFERENCE 3/3 T15, MEDIA [2]: 39.8 | RIGHT THIGH CIRCUMFERENCE 1/3 T15, MEDIA [2]: 53.3 | RIGHT THIGH CIRCUMFERENCE 2/3 T15, MEDIA [2]: 49.2 | RIGHT THIGH CIRCUMFERENCE 3/3 T15, MEDIA [2]: 39.5 | LEFT THIGH CIRCUMFERENCE 1/3 T30, MEDIA [3]: 51.6 | LEFT THIGH CIRCUMFERENCE 2/3 T30, MEDIA [3]: 48.8 | LEFT THIGH CIRCUMFERENCE 3/3 T30, MEDIA [3]: 38.7 | RIGHT THIGH CIRCUMFERENCE 1/3 T30, MEDIA [3]: 51.8 | RIGHT THIGH CIRCUMFERENCE 2/3 T30, MEDIA [3]: 48.8 | RIGHT THIGH CIRCUMFERENCE 3/3 T30, MEDIA [3]: 38.8 | LEFT THIGH CIRCUMFERENCE 1/3 T60, MEDIA [4]: 50.7 | LEFT THIGH CIRCUMFERENCE 2/3 T60, MEDIA [4]: 47.9 | LEFT THIGH CIRCUMFERENCE 3/3 T60, MEDIA [4]: 38.1 | RIGHT THIGH CIRCUMFERENCE 1/3 T60, MEDIA [4]: 50.7 | RIGHT THIGH CIRCUMFERENCE 2/3 T60, MEDIA [4]: 47.7 | RIGHT THIGH CIRCUMFERENCE 3/3 T60, MEDIA [4]: 38.0 | LEFT THIGH CIRCUMFERENCE 1/3 T0 [5]: 55.0 and 52.8 (2×) and 51.7 and 64.0 and 55.7 (3×) and 51.0 and 47.6 and 49.0 and 52.5 and 56.6 and 58.1 and 55.2 and 47.1 and 47.0 and 48.5 and 52.1 and 50.2 and 52.7 and 49.7 and 60.6 and 48.2 and 59.2 | LEFT THIGH CIRCUMFERENCE 2/3 T0 [5]: 49.9 and 51.3 and 49.0 and 58.4 and 52.4 and 46.9 and 46.2 and 47.9 (2×) and 50.4 and 52.9 and 55.9 (2×) and 56.7 and 48.9 and 46.7 and 52.6 and 44.0 and 45.4 (2×) and 52.0 and 51.4 and 48.2 and 44.9 and 54.6 | LEFT THIGH CIRCUMFERENCE 3/3 T0 [5]: 41.2 (2×) and 39.7 (2×) and 48.0 and 37.6 (2×) and 36.4 (2×) and 37.7 and 38.4 and 39.8 and 37.8 and 43.1 and 43.2 and 37.4 and 38.7 (2×) and 37.9 and 47.2 and 44.2 and 38.6 and 43.8 and 36.3 and 46.4 | RIGHT THIGH CIRCUMFERENCE 1/3 T0 [5]: 55.0 and 53.2 and 52.0 (2×) and 64.7 and 55.7 (2×) and 50.6 and 48.1 and 49.0 and 53.0 and 56.9 and 59.0 and 55.2 and 52.6 and 47.0 (2×) and 48.3 and 52.2 and 54.9 and 50.2 and 50.8 and 60.8 and 48.2 and 56.0 | RIGHT THIGH CIRCUMFERENCE 2/3 T0 [5]: 49.9 and 51.3 and 49.0 and 58.4 and 52.5 and 47.2 and 46.5 and 47.9 (2×) and 50.4 and 52.9 and 55.9 and 56.8 and 49.2 and 46.7 and 52.6 and 44.0 and 45.4 (2×) and 52.0 and 51.4 and 48.2 and 45.3 and 55.6 and 54.6 | RIGHT THIGH CIRCUMFERENCE 3/3 T0 [5]: 41.2 (2×) and 39.7 and 48.0 and 37.6 (2×) and 36.4 (2×) and 37.7 and 38.4 (2×) and 39.8 and 37.8 and 45.3 and 43.2 and 37.4 and 38.6 and 39.0 and 37.9 and 39.5 and 47.5 and 44.1 and 43.8 and 36.3 and 46.4 | LEFT THIGH CIRCUMFERENCE 1/3 T15 [6]: 54.5 and 52.3 (2×) and 51.2 and 63.5 and 55.2 (3×) and 50.5 and 47.1 and 48.5 and 52.0 and 56.1 and 57.6 and 54.7 and 46.6 and 46.5 and 48.0 and 51.6 and 49.7 and 52.2 and 49.2 and 60.5 and 47.7 and 58.7 | LEFT THIGH CIRCUMFERENCE 2/3 T15 [6]: 49.4 and 50.8 and 48.5 and 57.9 and 51.9 and 46.4 and 45.7 and 47.4 (2×) and 49.9 and 52.4 and 55.4 (2×) and 56.2 and 48.4 and 46.2 and 52.1 and 43.5 and 44.9 (2×) and 51.5 and 50.9 and 47.7 and 44.4 and 54.1 | LEFT THIGH CIRCUMFERENCE 3/3 T15 [6]: 40.7 (2×) and 39.2 (2×) and 47.5 and 37.1 (2×) and 35.9 (2×) and 37.2 and 37.9 and 39.3 and 37.3 and 42.6 and 42.7 and 36.9 and 38.2 (2×) and 37.4 and 46.7 and 43.7 and 38.1 and 43.3 and 35.8 and 45.9 | RIGHT THIGH CIRCUMFERENCE 1/3 T15 [6]: 55.9 and 52.8 and 53.2 and 65.3 and 55.3 and 49.4 and 48.4 and 49.8 and 53.3 and 57.6 and 59.2 and 54.3 and 50.5 and 48.1 and 56.3 and 48.0 (2×) and 48.8 and 51.8 and 54.5 and 51.0 and 50.8 and 50.4 and 60.4 and 59.8 | RIGHT THIGH CIRCUMFERENCE 2/3 T15 [6]: 48.2 and 49.6 and 47.3 (2×) and 56.7 and 50.7 and 46.2 (2×) and 44.5 and 49.8 and 52.3 and 55.6 and 56.5 and 48.7 and 45.0 and 50.9 and 44.0 and 45.2 and 51.8 and 51.0 and 47.9 and 43.2 and 54.2 and 43.7 and 52.9 | RIGHT THIGH CIRCUMFERENCE 3/3 T15 [6]: 40.6 and 40.8 and 37.7 (3×) and 49.2 and 38.5 (2×) and 35.3 and 37.2 and 37.1 and 39.7 and 44.5 and 42.3 and 36.6 and 39.2 and 35.5 and 38.7 and 39.4 and 43.2 and 37.5 and 36.4 and 43.9 and 35.8 and 45.5 | LEFT THIGH CIRCUMFERENCE 1/3 T30 [7]: 53.4 and 51.2 (2×) and 50.1 and 62.4 and 54.2 and 49.2 and 46.0 and 47.4 and 50.9 and 55.0 and 56.5 and 53.6 and 45.5 and 54.1 and 45.4 and 46.9 and 50.5 and 54.0 and 49.7 and 52.3 and 48.1 and 59.0 and 46.6 and 57.6 | LEFT THIGH CIRCUMFERENCE 2/3 T30 [7]: 48.5 and 49.9 and 47.6 and 57.0 and 51.0 and 45.5 and 44.8 and 46.5 (2×) and 49.0 and 51.5 and 54.5 (2×) and 55.3 and 47.5 and 45.3 and 51.2 and 42.6 and 44.0 (2×) and 50.6 and 50.0 and 46.8 and 43.5 and 53.2 | LEFT THIGH CIRCUMFERENCE 3/3 T30 [7]: 39.5 (2×) and 38.0 (2×) and 46.3 and 35.9 (2×) and 34.7 (2×) and 36.0 and 36.7 and 38.1 (2×) and 36.1 and 41.4 and 41.5 and 35.7 and 37.0 (2×) and 36.2 and 45.5 and 43.6 and 42.1 and 34.6 and 44.7 | RIGHT THIGH CIRCUMFERENCE 1/3 T30 [7]: 54.5 and 51.4 and 51.8 and 63.9 and 53.9 and 48.0 and 47.0 and 48.4 and 51.9 and 56.2 and 57.8 and 52.9 and 49.3 and 46.7 and 53.6 and 47.1 and 46.5 and 49.9 and 53.0 and 48.6 and 48.5 and 49.0 and 59.0 and 46.4 and 58.4 | RIGHT THIGH CIRCUMFERENCE 2/3 T30 [7]: 48.2 and 48.0 and 46.8 and 56.4 and 50.3 and 46.5 and 44.3 and 44.6 (2×) and 49.6 and 51.7 and 55.4 and 56.0 and 48.6 and 45.0 and 50.0 and 44.0 and 50.6 and 51.0 and 47.0 and 47.8 and 43.0 and 53.9 and 44.2 and 51.3 | RIGHT THIGH CIRCUMFERENCE 3/3 T30 [7]: 40.5 and 40.3 and 36.6 (2×) and 48.1 and 38.2 and 34.2 and 36.4 (2×) and 38.7 (2×) and 38.4 and 43.4 and 41.0 and 36.2 and 36.8 (2×) and 35.2 and 37.8 and 38.3 and 42.5 and 35.7 and 42.8 and 35.6 and 44.3 | LEFT THIGH CIRCUMFERENCE 1/3 T60 [8]: 52.7 and 50.5 (2×) and 49.4 and 61.7 and 53.4 (2×) and 48.7 and 44.9 and 46.7 and 50.0 and 53.7 and 55.8 and 51.7 and 44.8 and 52.9 and 44.7 and 46.2 and 49.8 and 48.5 and 50.4 and 47.4 and 57.9 and 45.9 and 56.9 | LEFT THIGH CIRCUMFERENCE 2/3 T60 [8]: 47.6 and 49.0 and 46.7 and 56.1 and 50.1 and 44.6 and 43.9 and 45.6 (2×) and 48.1 and 50.6 and 53.6 (2×) and 54.4 and 46.6 and 44.4 and 50.3 and 41.7 and 43.1 (2×) and 49.7 and 49.1 and 45.9 and 42.6 and 52.3 | LEFT THIGH CIRCUMFERENCE 3/3 T60 [8]: 39.0 (2×) and 37.5 (2×) and 45.8 and 35.4 (2×) and 34.2 (2×) and 35.5 and 36.2 and 37.6 and 35.6 and 41.6 (2×) and 41.0 and 35.2 and 36.5 (2×) and 35.7 and 45.0 and 42.0 and 36.4 and 34.1 and 44.2 | RIGHT THIGH CIRCUMFERENCE 1/3 T60 [8]: 53.8 and 50.7 and 50.0 and 62.4 and 53.2 and 47.3 and 46.0 and 47.2 and 51.0 and 55.5 and 56.7 and 52.0 and 48.4 and 44.7 and 52.8 and 45.0 and 45.9 and 49.3 and 51.8 and 48.1 and 48.5 and 48.3 and 57.8 and 45.7 and 56.5 | RIGHT THIGH CIRCUMFERENCE 2/3 T60 [8]: 46.8 and 48.1 and 46.5 and 56.4 and 49.2 and 43.7 and 44.5 and 44.7 and 47.2 and 49.7 and 53.8 and 56.0 and 46.3 and 43.5 (2×) and 49.4 and 44.3 and 50.2 and 48.3 and 45.9 and 45.0 and 41.7 and 52.7 and 43.2 and 50.8 | RIGHT THIGH CIRCUMFERENCE 3/3 T60 [8]: 38.2 (2×) and 39.3 and 36.2 (3×) and 47.7 and 37.0 (2×) and 33.8 and 35.7 and 35.6 and 43.0 and 40.8 and 34.8 and 37.7 and 34.2 and 37.2 and 37.9 and 41.7 and 36.0 and 33.7 and 42.4 and 34.3 and 44.0
